We go through one compound from patent US4020060A, “7-[α-Amino- ω-(3,4-methylenedioxyphenyl)acylamido]cephalosporanic acid derivatives” (Richardson-Merrell Inc., priority 1975, dated 1977).

By MIC is commonly meant the least concentration at which growth counts as inhibited. A lower MIC goes with greater potency. As a reminder, the ED50 is the dose that gives a 50% effect, or the effect in half of the subjects.

In one assay the test system is Staphylococcus aureus. In words: in vitro minimal inhibitory concentration, two-fold serial dilutions in trypticase soy broth. Conditions: 24 hours at 37° C. In kind it is cell-based. Here is the method: (§1) The following example illustrates the in vitro activity of the compounds of this invention.
(§2) Two-fold serial dilutions of the test compound are made in trypticase soy broth. A series of tubes of both containing different concentrations of the test compound are inoculated with the particular bacterial culture used for in vitro activity. The inoculated tubes are examined for the inhibition of bacterial growth after 24 hours of incubation at 37° C. The following table summarizes the minimal inhibitory concentration (MIC) for the various bacterial cultures tested with the compound 7-[2-amino-2-(3,4-methylenedioxyphenyl)acetamido]desacetoxycephalosporanicacid.

The test system of assay [1] is Salmonella schottmuelleri. The description is as above. The assay is classed as cell-based. Particulars: 24 hours at 37° C. As to the method: as §1, §2
A further assay concerns Escherichia coli. The assay is described as above. In kind it is cell-based. Particulars: 24 hours at 37° C. Here is the method: as §1, §2
Assay [2] relates to Diplococcus pneumoniae. Described as above. In kind it is cell-based. Conditions: Streptococcus pneumoniae, 24 hours at 37° C. As to the method: as §1, §2
Assay [3] concerns Streptococcus pyogenes. The description is as above. In kind it is cell-based. Particulars: 24 hours at 37° C. Here is the method:
as §1, §2

In assay [4] the test system is Salmonella schottmuelleri. In words: in vivo protection of mice challenged with a fatal bacterial infection. Conditions: sc, subcutaneous, 1 and 4 hours after challenge, read-out: dose required per treatment to protect fifty percent of the infected mice (ED50). Here is the method: (§3) The following example illustrates the in vivo activity of the compounds of this invention.
(§4) Several groups of 10 mice are challenged with a fatal bacterial infection. Various dose levels of the test compound are administered orally or subcutaneously to separate groups of these animals 1 and 4 hours after challenge. After three or four days, depending upon the test organism, the number of survivors are recorded at each dose level and the dose required per treatment to protect fifty percent of the infected mice (ED50) is calculated by the method described by Reed and Muench, Amer. J. Hyg. 27, 493-497 (1938).

The subject of assay [5] is Diplococcus pneumoniae. The description is as above. Particulars: Streptococcus pneumoniae, 1 and 4 hours after challenge, read-out: dose required per treatment to protect fifty percent of the infected mice (ED50). Here is the method: as §3, §4
In assay [6] the test system is Streptococcus pyogenes. The assay is described as above. Conditions: 1 and 4 hours after challenge, read-out: dose required per treatment to protect fifty percent of the infected mice (ED50). Here is the method: as §3, §4

Values after ≈ are worked out from the molar mass of the structure shown. Where two headings read alike, the source gives them in different places.

As for `CC1=C(C(=O)O)N2C(=O)C(NC(=O)C(N)c3ccc4c(c3)OCO4)C2SC1` (stereo not shown) [7-[2-Amino-2-(3,4-methylenedioxyphenyl)acetamido] desacetoxycephalosporanic acid], the MIC against Staphylococcus aureus worked out at 1.6 µg/mL (≈ 4.09 µM); in assay [1], 50 µg/mL (≈ 128 µM); with Escherichia coli, 50 µg/mL (≈ 128 µM); in the assay with Diplococcus pneumoniae [2], 3.1 µg/mL (≈ 7.92 µM); in the assay on Streptococcus pyogenes [3], 0.8 µg/mL (≈ 2.04 µM). Moreover, the 50% effective dose (ED50) came out at 26 mg/kg in assay [4]; 45 mg/kg in the assay with Diplococcus pneumoniae [5] (po, per os); 40 mg/kg with Diplococcus pneumoniae [5] (sc, subcutaneous); 1 mg/kg in the assay with Streptococcus pyogenes [6] (po, per os); 0.9 mg/kg with Streptococcus pyogenes [6] (sc, subcutaneous).
